Tested on in the first test: not given
Assay: not given
The note with it: for example, prostatic cancer; cited from earlier work.
As to `CCNC(=O)[C@@H]1CCCN1C(=O)[C@H](CCCNC(=N)N)NC(=O)[C@H](CC(C)C)NC(=O)[C@@H](CC(C)C)NC(=O)[C@H](Cc1ccc(O)cc1)NC(=O)[C@H](CO)NC(=O)[C@H](Cc1c[nH]c2ccccc12)NC(=O)[C@H](Cc1c[nH]cn1)NC(=O)[C@@H]1CCC(=O)N1` [Leuprorelin acetate], the “anti-tumor activity against hormone-dependent cancers” value is recorded as “shows anti-tumor activity”.

The test is the same for the next values; noted with them: repeated administration; cited from earlier work.
With `CCNC(=O)[C@@H]1CCCN1C(=O)[C@H](CCCNC(=N)N)NC(=O)[C@H](CC(C)C)NC(=O)[C@@H](CC(C)C)NC(=O)[C@H](Cc1ccc(O)cc1)NC(=O)[C@H](CO)NC(=O)[C@H](Cc1c[nH]c2ccccc12)NC(=O)[C@H](Cc1c[nH]cn1)NC(=O)[C@@H]1CCC(=O)N1` [Leuprorelin acetate], the productivity of testosterone result was “reduce the productivity of testosterone to the level of castration”.

In another test the target is T1, human GnRH receptor (Homo sapiens, UniProt P30968).
T1 construct: expressed in transfected cells; host or cells: CHO (Chinese Hamster Ovary) cells, membrane fraction
T1 sequence (P30968 1-328): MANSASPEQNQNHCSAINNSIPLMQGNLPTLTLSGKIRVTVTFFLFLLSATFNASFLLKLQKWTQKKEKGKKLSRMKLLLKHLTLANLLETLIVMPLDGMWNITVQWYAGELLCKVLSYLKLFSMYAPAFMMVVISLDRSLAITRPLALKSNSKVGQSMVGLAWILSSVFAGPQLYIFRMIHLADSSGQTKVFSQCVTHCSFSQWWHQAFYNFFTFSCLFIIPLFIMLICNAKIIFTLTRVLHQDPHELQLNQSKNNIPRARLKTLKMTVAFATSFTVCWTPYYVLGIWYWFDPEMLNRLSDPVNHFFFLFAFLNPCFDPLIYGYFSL
Briefly: Test for inhibition of ^125 I-leuprorelin binding to human GnRH receptor. The note with it: membrane fraction of CHO cells expressing human GnRH receptors, 25° C., 60 minutes, read-out: Binding Inhibitory Activity (IC50, μM) for human GnRH receptor. The protocol:
(A) Preparation of ^125 I-leuprorelin
Ten μl of a 3×10^-4 M aqueous solution of leuprorelin and 10μl of 0.01 mg/ml lactoperoxidase in 0.1M Hepes buffer (pH7.4) were put in a tube, to which was added 10 μl of an Na^125 I solution (37 MBq). The mixture was stirred, to which was added 10 μl of 0.001% H2 O2, followed by allowing the reaction to proceed for 20 minutes at room temperature. To the reaction mixture was added 700 μl of a 0.05% TFA solution to stop the reaction. The product of was purified by means of a reverse-phase HPLC. Conditions of HPLC were as follows:
(D) Preparation of membrane fraction of CHO (Chinese Hamster Ovary) cells containing human GnRH receptors
CHO cells (10^9) expressing human GnRH receptors were suspended in a phosphate-buffered saline supplemented with 5 mM EDTA. The suspension was subjected to centrifugal separation for 5 minutes at 100×g. To the pellet of cells was added 10 ml of a homogenate buffer for cells (10 mM NaHCO3, 5 mM EDTA, pH 7.5), which was homogenated by using a Polytron homogenizer. Centrifugal separation was conducted for 15 minutes at 400×g. The supernatant was taken into an ultracentrifugal tube, which was subjected to centrifuge for one hour at 100,000×g to give precipitate of the membrane fraction. The precipitate was suspended in 2 ml of the assay buffer, which was centrifuged for one hour at 100,000×g. The membrane fraction recovered as precipitate was again suspended in 20 ml of the assay buffer, which was distributed to vials and stored at -80° C. until used.
(E) Determination of inhibitory rate of ^125 I-leuprorelin binding
In the cases of using rat and human pituitary membrane fractions prepared in (B) and (D), they were respectively diluted with the assay buffer to 200 μg/ml and 188 μl each was distributed to tubes. In the case of using bovine pituitary membrane fraction prepared in (C), it was diluted with the assay buffer to 750 μg/ml and 188 μl each was distributed into tubes. In the case where the membrane fraction of anterior lobes of rat pituitary gland was used, 2 μl of a 0.1 mM compound dissolved in 60% DMSO (dimethylsulfoxide) and 10 μl of 38 nM ^125 I-leuprorelin were added thereto simultaneously. In the case where the membrane fraction of anterior lobes of bovine pituitary gland and the membrane fraction derived from the CHO cells expressing human GnRH receptors were used, 2 μl of a 2 mM compound dissolved in 60% DMSO and 10 μl of 38 nM ^125 I-leuproprelin were added simultaneously. For determining the maximum binding amount, a solution for reaction supplemented with 2 μl of 60% DMSO and 10 μl of 38 nM ^125 I-leuprorelin was prepared. And, for determining the amount of non-specific binding, a solution for reaction supplemented with 2 μl of 100 μM leuprorelin dissolved in 60% DMSO and 10 μl of 38 nM ^125 I-leuprorelin were also prepared simultaneously.
In the cases where membrane fractions of anterior lobes of rat and bovine pituitary were used, reaction was allowed to proceed at 4° C. for 90 minutes, while in the case where the membrane fraction derived from the CHO cells expressing human GnRH receptor was used, reaction was allowed to proceed at 25° C. for 60 minutes. The reaction mixtures were respectively subjected to filtration under sucking with Whatman glass filter (GF-F) processed with polyethyleneimine. After completing the filtration, radioactivity of the ^125 I-leuprorelin remaining on the filter paper was measured with a γ-counter.
By calculation of (TB-SB)/(TB-NSB)×100 (SB: radioactivity obtained when a compound was added, TB: radioactivity for the maximum binding, NSB: radioactivity for the non-specific binding), the binding inhibitory rate of each test compound was determined. Besides, the inhibitory rates were determined by changing the concentrations of test compounds, and the concentration of a test compound inhibiting the specific binding by 50% (IC50 value) was calculated by way of Hill plot.
With `O=C1c2ccccc2C(=O)N1CC(=O)N1c2ccccc2N(Cc2ccc([N+](=O)[O-])cc2)C(=O)[C@H]2CCC[C@H]21` (relative stereo) [compound 195], the IC50 (as a rule, the concentration that inhibits the measured activity by half) came out at 0.5 µM.
The same measure, in the same setting: with `O=C1c2ccccc2C(=O)N1CC(=O)N1c2ccccc2N(Cc2cccc([N+](=O)[O-])c2)C(=O)[C@H]2CCC[C@H]21` (relative stereo) [compound 209] the figure was 2 µM.
As to `N#Cc1ccc(CN2C(=O)[C@H]3CCC[C@H]3N(C(=O)CN3C(=O)c4ccccc4C3=O)c3ccccc32)cc1` (relative stereo) [compound 210], the IC50 is 0.4 µM.
On the same count and under the same terms, next, `CSc1ccc(CN2C(=O)[C@H]3CCC[C@H]3N(C(=O)CN3C(=O)c4ccccc4C3=O)c3ccccc32)cc1` (relative stereo) [compound 212]: 1 µM; `O=C1c2ccccc2C(=O)N1CC(=O)N1c2ccccc2N(Cc2ccc(O)cc2)C(=O)[C@H]2CCC[C@H]21` (relative stereo) [compound 214]: 1 µM; `O=C1c2ccccc2C(=O)N1CC(=O)N1c2ccccc2N(Cc2cccc(O)c2)C(=O)[C@H]2CCC[C@H]21` (relative stereo) [compound 215]: 2 µM.
Same read-out and setting: with `O=C1c2ccccc2C(=O)N1CC(=O)N1c2ccccc2N(CCc2ccccc2)C(=O)[C@H]2CCC[C@H]21` (relative stereo) [compound 217] the figure was 0.7 µM; with `O=C1CC(/C=C/c2ccccc2)Nc2ccccc2N1Cc1ccccc1` (centres unmarked) [compound 36], 2 µM.
As for `O=C1[C@H]2CCC[C@H]2N(C(=O)CN2C(=O)c3ccccc3C2O)c2ccccc2N1Cc1ccccc1` (some centres unmarked) [compound 65], the IC50 was determined as 14 µM.
Regarding `O=C1c2ccccc2C(O)N1CC(=O)N1c2ccccc2N(Cc2ccccc2)C[C@H]2CCC[C@H]21` (some centres unmarked) [compound 66], the IC50 is 8 µM.
For the compound `O=C1C2=C(CCCC2)C(=O)N1CC(=O)N1c2ccccc2N(Cc2ccccc2)C(=O)C2CCCC21` (centres unmarked) [compound 76], the IC50 worked out at 1 µM.
On the same count and under the same terms, next, `COc1cccc(CN2C(=O)C3CCCC3N(C(=O)CN3C(=O)c4ccccc4C3=O)c3ccccc32)c1` (centres unmarked) [compound 111]: 4 µM.
Regarding `COc1ccc(CN2C(=O)C3CCCC3N(C(=O)CN3C(=O)c4ccccc4C3=O)c3ccccc32)cc1` (centres unmarked) [compound 112], the IC50 was determined as 2 µM.
Take `O=C1c2ccccc2C(=O)N1CC(=O)N1c2ccccc2N(c2ccccc2)C(=O)C2CCCC21` (centres unmarked) [compound 121]: the IC50 is 11 µM.
As to `O=C1C2CCCCC2C(=O)N1CC(=O)N1c2ccccc2N(Cc2ccccc2)C(=O)C2CCCC21` (centres unmarked) [compound 174], the IC50 was 5 µM.
The same measure, in the same setting: next, `O=C1C2CCCCC2C(=O)N1CC(=O)N1c2ccccc2N(Cc2ccccc2)C(=O)[C@H]2CCC[C@H]21` (some centres unmarked) [compound 175]: 1 µM.

The test system of another test is pentobarbital-induced sleep in mice. Briefly: Effect on pentobarbital-induced sleep in mice. In kind it is in vivo, ICR male mice. The note with it: 10 mg/kg orally, 30 minutes before sodium pentobarbital 55 mg/kg i.p. The protocol: (G) Effect on pentobarbital-induced sleep in mice
ICR male mice of 5-6 week old were orally administered with test samples dissolved or suspended in a physiological saline solution or 5% gum solution dosage of 100 mg/kg (2-3 animals in each group), and behavioral observation was conducted at 15, 30, 60 and 120 minutes after the administration.
As the next stage, ICR male mice of 4-5 week old were orally administered with test samples dissolved or suspended in a physiological saline solution or 5% gum arabic solution at a dosage which was one rank lower than the dosage determined as above (8 animals in each group). Thirty minutes after the administration, test animals were administered intraperitoneally with sodium pentobarbital at a dosage of 55 mg/kg. The duration of sleep was measured as the time from the onset of righting reflex until the righting reflex was regained.
For the compound `O=C1C2CCCC2=Nc2ccccc2N1Cc1ccncc1` (centres unmarked) [compound 9], the “Percentage (%) of sleeping time relative to control” value came to 176%.

The same test, now with this note: 20 mg/kg orally, 30 minutes before sodium pentobarbital 55 mg/kg i.p.
`CN1c2ccccc2N(Cc2ccccc2)C[C@H]2CCC[C@H]21` (relative stereo) [compound 45]: the “Percentage (%) of sleeping time relative to control” value worked out at 124%.
The same measure, in the same setting: next, `O=C1C2CCCC2=Nc2ccccc2N1Cc1ccccc1F` (centres unmarked) [compound 5]: 140%.

The same test, now with this note: 50 mg/kg orally, 30 minutes before sodium pentobarbital 55 mg/kg i.p.
For `O=C1[C@H]2CCC[C@H]2Nc2ccccc2N1Cc1ccc(Cl)cc1Cl` (relative stereo) [compound 37], the “Percentage (%) of sleeping time relative to control” value is 128%.
On the same count and under the same terms, with `O=C1C2CCCC2=Nc2ccccc2N1Cc1ccc(Cl)cc1` (centres unmarked) [compound 4] the figure was 140%.

Another test has as its system GnRH receptor.
Assay: not given
The note with it: relative to GnRH obtained from natural sources; cited from earlier work.
As to `CCNC(=O)[C@@H]1CCCN1C(=O)[C@H](CCCNC(=N)N)NC(=O)[C@H](CC(C)C)NC(=O)[C@@H](CC(C)C)NC(=O)[C@H](Cc1ccc(O)cc1)NC(=O)[C@H](CO)NC(=O)[C@H](Cc1c[nH]c2ccccc12)NC(=O)[C@H](Cc1c[nH]cn1)NC(=O)[C@@H]1CCC(=O)N1` [leuprorelin], the “affinity to GnRH receptor” value is on record as “higher affinity to GnRH receptor than GnRH obtained from natural sources”.

Another test has as its system ethanol-induced sleep in mice. Briefly: Effects on ethanol-induced sleep in mice. In kind it is in vivo, ICR male mice. The note with it: 30 mg/kg orally, 30 minutes before 25% ethanol i.p.; 8 animals. As for the experimental part:
(F) Effects on ethanol-induced sleep in mice
ICR male mice of 4-5 week old were orally administered with test compounds suspended in a physiological saline solution or 5% gum arabic solution at a dosage of 30 mg/kg (8 animals in each group). Thirty minutes later, test animals were intrapritoneally injected with 25% ethanol (0.2 mL/10 g). The duration of sleep was measured as the time from the onset of righting reflex until the righting reflex was regained.
With `O=C1[C@H]2CCC[C@H]2Nc2ccccc2N1Cc1ccc(Cl)cc1Cl` (relative stereo) [compound 37], the “Percentage (%) of sleeping time relative to control” value is 145%.
On to `CN1c2ccccc2N(Cc2ccccc2)C(=O)[C@H]2CCC[C@H]21` (relative stereo) [compound 63], for which the “Percentage (%) of sleeping time relative to control” value is 37%.
On the same count and under the same terms, next, `CC(=O)N1c2ccccc2N(Cc2ccccc2)C(=O)[C@H]2CCC[C@H]21` (relative stereo) [compound 64]: 41%; `Nc1ccc(CN2C(=O)C3CCCC3=Nc3ccccc32)cc1` (centres unmarked) [compound 17]: 33%; `O=C1N(Cc2ccccc2)c2ccccc2NC2CCCC12Cc1ccccc1` (centres unmarked) [compound 29]: 50%.

Source of the values: US5834463A, “Condensed heterocyclic compounds, their production and use” (Takeda Chemical Industries, Ltd., priority 1994, dated 1998).
